Measured values as given in patent publication US20200123175A1, “NOVEL ISOTHIAZOLO-BASED BICYCLES, PROCESSES FOR THEIR PREPARATION AND THEIR USE AS HERBICIDES AND/OR PLANT GROWTH REGULATORS” (Bayer CropScience Aktiengesellschaft, priority 2017, published 2020).

Experiments:
VIOTR [1] = test: Herbicidal action pre-emergence (PE); format: in vivo, Viola tricolor; settings: dosage 320 g/ha
AMARE [2] = test: Herbicidal action pre-emergence (PE); format: in vivo, Amaranthus retroflexus; settings: dosage 320 g/ha
AMARE [3] = test: Herbicidal action post-emergence (PO); format: in vivo, Amaranthus retroflexus; settings: dosage 320 g/ha
VIOTR [4] = test: Herbicidal action post-emergence (PO); format: in vivo, Viola tricolor; settings: dosage 320 g/ha
ABUTH = test: Herbicidal action post-emergence (PO); format: in vivo, Abutilon theophrasti; settings: dosage 320 g/ha
ALOMY = test: Herbicidal action pre-emergence (PE); format: in vivo, Alopecurus myosuroides; settings: dosage 320 g/ha
Puccinia recondita = test: In vivo preventive test on Puccinia recondita (brown rust on wheat); settings: 100 ppm of active ingredient; wheat plants; evaluated 11 days after the inoculation
Procedure: (§1) 4) Example: In Vivo Preventive Test on Puccinia recondita (Brown Rust on Wheat) [table] The active ingredients were made soluble and homogenized in a mixture of Dimethyl sulfoxide/Acetone//Tween® 80 and then diluted in water to the desired concentration. The young plants of wheat were treated by spraying the active ingredient prepared as described above. Control plants were treated only with an aqueous solution of Acetone/Dimethyl sulfoxide/Tween® 80. After 24 hours, the plants were contaminated by spraying the leaves with an aqueous suspension of Puccinia recondita spores.

SETVI [5] = test: Herbicidal action post-emergence (PO); format: in vivo, Setaria viridis; settings: dosage 320 g/ha
PHBPU = test: Herbicidal action post-emergence (PO); format: in vivo, Pharbitis purpurea; settings: dosage 320 g/ha
Pyrenophora teres = test: In vivo preventive test on Pyrenophora teres (net blotch on barley); settings: 100 ppm of active ingredient; barley plants; evaluated 14 days after the inoculation
Procedure: as §1, with “5)” for “4)”, “Pyrenophora teres (Net Blotch” for “Puccinia recondita (Brown Rust”, “Barley)” for “Wheat)”, “barley” for “wheat”, “Pyrenophora teres” for “Puccinia recondita”

ECHCG = test: Herbicidal action pre-emergence (PE); format: in vivo, Echinochloa crus-galli; settings: dosage 320 g/ha
MATIN = test: Herbicidal action pre-emergence (PE); format: in vivo, Matricaria inodora; settings: dosage 320 g/ha
POLCO = test: Herbicidal action pre-emergence (PE); format: in vivo, Polygonum convolvulus; settings: dosage 320 g/ha
SETVI [6] = test: Herbicidal action pre-emergence (PE); format: in vivo, Setaria viridis; settings: dosage 320 g/ha

Row | Structure (SMILES) | VIOTR (VIOTR [1]) | AMARE (AMARE [2]) | AMARE (AMARE [3]) | VIOTR (VIOTR [4]) | ABUTH (ABUTH) | ALOMY (ALOMY) | efficacy (Puccinia recondita) | SETVI (SETVI [5]) | PHBPU (PHBPU) | efficacy (Pyrenophora teres) | ECHCG (ECHCG) | MATIN (MATIN) | POLCO (POLCO) | SETVI (SETVI [6])
1 | O=C(Nc1nsc2c(=O)n(CC3CCCCC3)cnc12)c1cccnc1 [Example I-06] | 100 | 100 | 100 | 100 | 100 | 90 |  |  |  |  |  |  |  | 
2 | O=C(Nc1nsc2c(=O)n(CC3CCCCC3)cnc12)C1CC1 [Example I-07] | 100 | 100 | 100 | 100 | 80 | 100 | at least 70% | 100 | 100 |  |  |  |  | 
3 | O=C(Nc1nsc2c(=O)n(CC3CCCCC3)cnc12)c1ccc(Cl)cc1 [Example I-18] | 100 | 100 |  |  |  | 80 |  |  |  |  |  |  |  | 
4 | O=C(Nc1nsc2c(=O)n(CC3CCCCC3)cnc12)c1cc(Cl)cc(Cl)c1 [Example I-20] | 100 | 100 |  |  |  | 80 |  |  |  |  |  |  |  | 
5 | O=C(Nc1nsc2c(=O)n(CC3CCCCC3)cnc12)C(F)F [Example I-44] | 100 | 100 | 100 | 100 | 100 |  |  |  |  | at least 70% | 100 | 100 | 100 | 100
6 | Nc1nsc2c1NCN(CC1CCCCCC1)C2=O [Example I-59, 3-amino-6-(cycloheptylmethyl)-4,5-dihydroisothiazolo[4,5-d]pyrimidin-7-one] | 100 | 100 | 100 | 100 | 100 |  |  | 100 | 100 |  | 100 | 100 | 100 | 100
7 | Nc1nsc2c1NCN(CC1CCCCC1)C2=O [Example I-61] | 100 | 100 | 100 | 100 | 100 |  |  | 100 | 90 |  | 100 | 100 | 100 | 100
8 | O=C(Nc1nsc2c(=O)n(CC3CCCCC3)cnc12)C(F)(F)C(F)(F)Cl [Example I-68] | 100 | 100 | 100 | 100 | 100 |  |  | 100 | 100 |  | 100 | 100 | 100 | 100
9 | COCC(=O)Nc1nsc2c(=O)n(CC3CCCCC3)cnc12 [Example I-69] | 100 | 100 | 100 | 100 | 90 |  |  | 100 | 100 |  | 100 | 100 | 100 | 100
10 | COC(=O)C(=O)Nc1nsc2c(=O)n(CC3CCCCC3)cnc12 [Example I-70] | 100 | 100 | 100 | 100 | 80 | 100 |  | 100 | 100 |  |  |  |  | 
11 | COC(=O)CC(=O)Nc1nsc2c(=O)n(CC3CCCCC3)cnc12 [Example I-71] | 100 | 100 | 100 | 100 | 100 |  |  | 100 | 100 |  | 100 | 100 | 100 | 100
12 | COC(=O)CCC(=O)Nc1nsc2c(=O)n(CC3CCCCC3)cnc12 [Example I-72] | 100 | 100 | 100 | 90 | 100 |  |  | 90 | 100 |  | 100 | 100 | 100 | 100
13 | O=C(Nc1nsc2c(=O)n(Cc3ccc(F)cc3F)cnc12)C(F)(F)C(F)(F)F [Example I-78] | 100 | 100 | 100 | 100 | 80 |  |  | 100 | 100 |  | 100 | 100 | 100 | 100
14 | CC(=O)Nc1nsc2c(=O)n(Cc3ccc(F)cc3F)cnc12 [Example I-79] | 100 | 100 | 100 | 100 | 90 | 100 |  |  |  |  |  |  |  | 
15 | CCC(=O)Nc1nsc2c(=O)n(Cc3ccc(F)cc3F)cnc12 [Example I-84] | 100 | 100 | 100 | 100 | 100 |  |  | 100 | 100 |  | 100 | 100 | 100 | 100
16 | O=C(Nc1nsc2c(=O)n(Cc3ccc(F)cc3F)cnc12)C(F)(F)F [Example I-85] | 100 | 100 | 100 | 100 | 80 |  |  | 100 | 100 |  | 100 | 100 | 100 | 100
